In patent US7189749B2, “Substituted phenoxyacetic acids” (The Institutes for Pharmaceutical Discovery LLC, priority 1999, dated 2007) one finds IC50, hALR1/hALR2 and inhibition data, which are given here for 32 compounds.

Test [1] concerns the target human aldose reductase (hALR2) (Homo sapiens, UniProt P15121). In words: inhibition of human aldose reductase (hALR2), methods similar to Butera et al. It is filed as biochemical. As for the experimental part:
Representative compounds of the invention were tested for their potency, selectivity and efficacy as inhibitors of human aldose reductase.

Test [2] has as its target T1, human aldehyde reductase (hALR1) (Homo sapiens, UniProt P14550).
T1 sequence (P14550 1-325): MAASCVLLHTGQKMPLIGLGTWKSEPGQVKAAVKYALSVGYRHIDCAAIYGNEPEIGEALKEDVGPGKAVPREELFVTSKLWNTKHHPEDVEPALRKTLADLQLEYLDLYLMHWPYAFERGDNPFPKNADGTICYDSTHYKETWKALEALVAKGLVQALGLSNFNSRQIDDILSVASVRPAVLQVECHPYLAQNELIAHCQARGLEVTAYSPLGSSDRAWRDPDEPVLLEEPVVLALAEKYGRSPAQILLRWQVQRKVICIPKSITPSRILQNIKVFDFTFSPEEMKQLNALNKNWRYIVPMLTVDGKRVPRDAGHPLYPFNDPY
In words: inhibition of human aldehyde reductase (hALR1), methods essentially of Ishii et al. The following applies: for hALR1/hALR2: ratio of hALR1 IC50 to hALR2 IC50, selectivity; for IC50: concentration required to inhibit human aldehyde reductase activity by 50%. It counts as biochemical. The method, then:
In a second assay, a number of the same compounds were tested for their ability to inhibit aldehyde reductase (hAR1), a structurally related enzyme. […] Using this assay, the concentrations required to inhibit human aldehyde reductase activity by 50% (ICSO) were determined.
Since high potency of test compounds as inhibitors of aldose reductase is desirable, low hALR2 IC50 values are sought. On the other hand, high potency of test compounds as inhibitors of aldehyde reductase is undesirable, and high hALR1 IC50s values are sought. Accordingly, the hALR1/hALR2 ratio is used to determine the selectivity of the test compounds.

Where [3] appears, read: concentration required to inhibit human aldose reductase activity by 50%.

Where two headings read alike, the source gives them in different places. A value given as a limit tells only on which side of the number the result lay.

As a reminder, the IC50 is the concentration that gives 50% inhibition. A low value points to greater potency. The compound `O=C(O)COc1cc(Cl)ccc1C(=O)NCc1cccc(C(F)(F)F)c1` [Example 4, [5-Chloro-2-(3-trifluoromethyl-benzylcarbamoyl)-phenoxy]-acetic acid] had an IC50 in test [1] (setting [3]) of 39 nM.

`O=C(O)COc1ccc(Br)cc1C(=S)NCc1ccc(Br)cc1F` [Example 34, [4-Bromo-2-(4-bromo-2-fluoro-benzylthiocarbamoyl)-phenoxy]-acetic acid] yielded an IC50 in test [1] (setting [3]) of 37 nM.

With `O=C(O)COc1ccc(Br)cc1C(=O)NCc1ccc(Br)cc1F` [Example 19, [4-Bromo-2-(4-bromo-2-fluoro-benzylcarbamoyl)-phenoxy]-acetic acid], in test [1] (setting [3]), the concentration for half-maximal inhibition (IC50) came to 64 nM.

As usually defined, the inhibition is how much of the control response was suppressed. `Cc1ccc(OCC(=O)O)c(C(=O)NCc2cccc([N+](=O)[O-])c2)c1` [Example 25, [2-(3-Nitro-benzylcarbamoyl)-4-methyl-phenoxy]-acetic acid] had an IC50 in test [1] (setting [3]) of 11 nM. Moreover, the hALR1/hALR2 in test [2] is reported as >9,100. Further, the inhibition at 100 µM in test [2] (read-out: hALR1 (aldehyde) % inhibition @ 100 μM) was found to be 48%.

`O=C(O)COc1ccc(OC(F)(F)F)cc1C(=O)NCc1cccc([N+](=O)[O-])c1` [Example 26, [2-(3-nitro-benzylcarbamoyl)-4-trifluoromethoxy-phenoxy]-acetic acid] registered a half-inhibitory concentration (IC50) in test [1] (setting [3]) of 9 nM.

Regarding `O=C(O)COc1cc(F)c(F)cc1C(=S)NCc1ccc(Br)cc1F` [Example 36, [2-(4-Bromo-2-fluoro-benzylthiocarbamoyl)-4,5-difluoro-phenoxy]-acetic acid], the IC50 in test [1] (setting [3]) is 33 nM.

In test [1] (setting [3]), `O=C(O)COc1cc(F)ccc1C(=O)NCc1nc2cc(C(F)(F)F)ccc2s1` [Example 56, {5-Fluoro-2-[(5-trifluoromethyl-benzothiazol-2-ylmethyl)-carbamoyl]-phenoxy}-acetic acid] returned an IC50 of 29 nM. Also, in test [2], inhibition was half-maximal at 22000 nM (IC50) and the hALR1/hALR2 was 760.

Consider `N#Cc1cc(C(=O)NCc2cccc([N+](=O)[O-])c2)c(OCC(=O)O)cc1F` [Example 52, [2-(3-Nitro-benzylcarbamoyl)-4-cyano-5-fluoro-phenoxy]-acetic acid], for which the IC50 in test [1] (setting [3]) turned out to be 7 nM.

Take `O=C(O)COc1cc(F)c(Br)cc1C(=O)NCc1cccc([N+](=O)[O-])c1` [Example 49, [4-Bromo-5-fluoro-2-(3-nitro-benzylcarbamoyl)-phenoxy]-acetic acid]: the midpoint of inhibition in test [1] (setting [3]), the IC50, lay at 6 nM. For the same compound, in test [2], the IC50 came to 44000 nM and the hALR1/hALR2 was 7,300.

In turn, `Cc1cc(C(=S)NCc2cccc([N+](=O)[O-])c2)c(OCC(=O)O)cc1F` [Example 48, [2-(3-Nitro-benzylthiocarbamoyl)-5-fluoro-4-methyl-phenoxy]-acetic acid] came in with a half-maximal inhibitory concentration (IC50) in test [1] (setting [3]) of 7 nM. This lies in the single-digit nanomolar range.

In test [1] (setting [3]), `O=C(O)COc1cc(F)ccc1C(=S)NCc1ccc(Br)cc1F` [Example 33, [2-(4-Bromo-2-fluoro-benzylthiocarbamoyl)-5-fluoro-phenoxy]-acetic acid] yielded a concentration for half-maximal inhibition (IC50) of 34 nM. In addition, in test [2], the half-maximal inhibitory concentration (IC50) is 33000 nM and the hALR1/hALR2 is 970.

On to `O=C(O)COc1cc(F)c(N2CCOCC2)cc1C(=O)NCc1cccc([N+](=O)[O-])c1` [Example 53, [2-(3-Nitro-benzylcarbamoyl)-5-fluoro-4-morpholin-4-yl-phenoxy]-acetic acid], for which the IC50 worked out at 7 nM in test [1] (setting [3]) and 54000 nM in test [2].

With `O=C(O)COc1cc(F)ccc1C(=O)NCc1cccc([N+](=O)[O-])c1` [Example 27, [5-Fluoro-2-(3-nitro-benzylcarbamoyl)-phenoxy]-acetic acid], half-maximal inhibition in test [1] (setting [3]) (IC50) required 8 nM. Besides, in test [2], the 50% inhibitory concentration (IC50) stood at 34000 nM and the hALR1/hALR2 is 4,300.

`Cc1ccc(CNC(=O)c2ccc(F)cc2OCC(=O)O)cc1[N+](=O)[O-]` [Example 29, [5-Fluoro-2-(4-methyl-3-nitro-benzylcarbamoyl)-phenoxy]-acetic acid] had an IC50 in test [1] (setting [3]) of 8 nM.

`O=C(O)COc1cc(Cl)ccc1C(=O)NCc1cccc([N+](=O)[O-])c1` [Example 5, [2-(3-Nitro-benzylcarbamoyl)-5-chloro-phenoxy]-acetic acid]: the half-inhibitory concentration (IC50) in test [1] came out at 6 nM. Also, the hALR1/hALR2 in test [2] is >4,200. For the same compound, the inhibition at 25 µM in test [2] (read-out: hALR1 (aldehyde) % inhibition @ 25 μM) amounted to 19%.

The compound `CSc1ccc(C(=O)NCc2ccc(Br)cc2F)c(OCC(=O)O)c1` [Example 24, [2-(4-Bromo-2-fluoro-benzylcarbamoyl)-5-methylsulfanyl-phenoxy]-acetic acid] yielded a half-maximal inhibitory concentration (IC50) in test [1] (setting [3]) of 83 nM.

In test [1] (setting [3]), `O=C(O)COc1cc(F)ccc1C(=S)NCc1cccc([N+](=O)[O-])c1` [Example 32, [5-Fluoro-2-(3-nitro-benzylthiocarbamoyl)-phenoxy]-acetic acid] yielded a half-maximal inhibitory concentration (IC50) of 6 nM. In addition, in test [2], the half-maximal inhibitory concentration (IC50) was 35000 nM and the hALR1/hALR2 was 5,800.

In the case of `O=C(O)COc1cc(F)c(-c2ccccc2)cc1C(=S)NCc1cccc([N+](=O)[O-])c1` [Example 51, [5-(3-Nitro-benzylthiocarbamoyl)-2-fluoro-biphenyl-4-yloxy]-acetic acid], the half-maximal inhibitory concentration (IC50) in test [1] (setting [3]) stood at 11 nM; in test [2], 12000 nM. Further, the hALR1/hALR2 in test [2] is reported as 1,100.

In test [1] (setting [3]), `Cc1cc(C(=S)NCc2ccc(Br)cc2F)c(OCC(=O)O)cc1F` [Example 46, [2-(4-Bromo-2-fluoro-benzylthiocarbamoyl)-5-fluoro-4-methyl-phenoxy]-acetic acid] came in with an IC50 of 24 nM. Moreover, in test [2], the IC50 stood at 31000 nM and the hALR1/hALR2 was 1,300.

Compound `O=C(O)COc1ccccc1C(=O)NCc1ccc(Br)cc1F` [Example 23, [2-(4-Bromo-2-fluoro-benzylcarbamoyl)-phenoxy]-acetic acid] gave an IC50 in test [1] (setting [3]) of 180 nM.

In test [1] (setting [3]), `Cc1ccc(OCC(=O)O)c(C(=O)NCc2ccc(Br)cc2F)c1` [Example 20, [2-(4-Bromo-2-fluoro-benzylcarbamoyl)-4-methyl-phenoxy]-acetic acid] had a 50% inhibitory concentration (IC50) of 69 nM. Also, in test [2], it took 11000 nM to reach half-maximal inhibition (IC50) and the hALR1/hALR2 turned out to be 160.

In test [1] (setting [3]), `O=C(O)COc1ccc(OC(F)(F)F)cc1C(=S)NCc1cccc([N+](=O)[O-])c1` [Example 35, [2-(3-Nitro-benzylthiocarbamoyl)-4-trifluoromethoxy-phenoxy]-acetic acid] displayed a concentration for half-maximal inhibition (IC50) of 12 nM.

Consider `Cc1cc(C(=O)NCc2ccc(Br)cc2F)c(OCC(=O)O)cc1F` [Example 45, [2-(4-Bromo-2-fluoro-benzylcarbamoyl)-5-fluoro-4-methyl-phenoxy]-acetic acid], for which, in test [1] (setting [3]), the IC50 amounted to 24 nM. In addition, in test [2], inhibition was half-maximal at 5800 nM (IC50) and the hALR1/hALR2 stood at 240.

Compound `O=C(O)COc1cc(Cl)ccc1C(=O)NCc1cc(F)cc(C(F)(F)F)c1` [Example 11, [5-Chloro-2-(3-fluoro-5-trifluoromethyl-benzylcarbamoyl)-phenoxy]-acetic acid] came in with a half-inhibitory concentration (IC50) in test [1] (setting [3]) of 29 nM.

In the case of `O=C(O)COc1ccc([N+](=O)[O-])cc1C(=O)NCc1ccc(Br)cc1F` [Example 21, [2-(4-Bromo-2-fluoro-benzylcarbamoyl)-4-nitro-phenoxy]-acetic acid], the half-inhibitory concentration (IC50) in test [1] (setting [3]) came out at 200 nM.

`O=C(O)COc1cc(F)ccc1C(=O)NCc1nc2c(F)c(F)cc(F)c2s1` [Example 54, {5-Fluoro-2[(4,5,7-trifluoro-benzothiazol-2-ylmethyl)carbamoyl]-phenoxy}-acetic acid] gave an IC50 in test [1] (setting [3]) of 11 nM. Besides, in test [2], the 50% inhibitory concentration (IC50) was found to be 22000 nM and the hALR1/hALR2 is on record as 2,000.

The compound `O=C(O)COc1cc(Cl)ccc1C(=O)NCc1ccc(Br)cc1F` [Example 1, [2-(4-Bromo-2-fluoro-benzylcarbamoyl)-5-chloro-phenoxy]-acetic acid] had an IC50 in test [1] (setting [3]) of 30 nM. Moreover, in test [2], the IC50 was found to be 14000 nM and the hALR1/hALR2 was found to be 470.

Regarding `O=C(O)COc1cc(F)c(F)cc1C(=O)NCc1ccc(Br)cc1F` [Example 30, [2-(4-Bromo-2-fluoro-benzylcarbamoyl)-4,5-difluoro-phenoxy]-acetic acid], the 50% inhibitory concentration (IC50) in test [1] (setting [3]) came out at 37 nM.

As for `O=C(O)COc1cc(F)ccc1C(=O)NCc1ccc(Br)cc1F` [Example 28, [2-(4-Bromo-2-fluoro-benzylcarbamoyl)-5-fluoro-phenoxy]-acetic acid], the results for the half-maximal inhibitory concentration (IC50) in test [1] (setting [3]) and in test [2] were 55 nM and 6600 nM, respectively. The hALR1/hALR2 in test [2] worked out at 120.

`Cc1cc(C(=O)NCc2cccc([N+](=O)[O-])c2)c(OCC(=O)O)cc1F` [Example 47, [2-(3-Nitro-benzylcarbamoyl)-5-fluoro-4-methyl-phenoxy]-acetic acid] registered a concentration for half-maximal inhibition (IC50) in test [1] (setting [3]) of 8 nM.

`O=C(O)COc1cc(Cl)ccc1C(=O)NCc1nc2cc(C(F)(F)F)ccc2s1` [Example 57, {5-Chloro-2-[(5-trifluoromethyl-benzothiazol-2-ylmethyl)-carbamoyl]-phenoxy}-acetic acid] gave an IC50 in test [1] (setting [3]) of 35 nM. This IC50 is about 4.4-fold higher than that of the compound before.

Turning to `O=C(O)COc1ccc(F)cc1C(=O)NCc1ccc(Br)cc1F` [Example 18, [2-(4-Bromo-2-fluoro-benzylcarbamoyl)-4-fluoro-phenoxy]-acetic acid], the midpoint of inhibition in test [1] (setting [3]), the IC50, lay at 150 nM. This IC50 lies about 4.3-fold higher than the previous one.
